# Patent publication US20110071124A1, “Compounds that Inhibit Production of sAPPB and AB and Uses Thereof” (The Trustees of Columbia University in the City of New York, priority 2008, published 2011)
# Key:
# [1] = system: sAPPβ in Tg2576 primary cortical neurons; assay: sAPPβ IP-Western in Tg2576 primary cortical neurons; format: cell-based, mouse; settings: LDN-0057228 20 μM, CNS-2 5 μM, 24 hours
# Protocol: (§1) FIG. 17A-B. LDN-0057228 and CNS-2 reduce Aβ40 and sAPPβ in Tg2576 primary neurons. Primary cortical neurons were cultured from P0 APPsw transgenic pups (Tg2576). DIV-14 neurons were treated for 24 hours with LDN-0057228 or CNS-2 at the indicated concentrations. Data from two independent experiments were pooled. A) Media was collected for Aβ40 ELISA. Raw Aβ40 values were normalized to total protein to control for variations in plating density or any cytotoxicity resulting from the compounds. B) sAPPβ in the media was immunoprecipitated with sβsw antibody and visualized on Western blot with LN27.
# CNS-2 and LDN-0057228 were evaluated in the Tg2576 pup system (FIG. 17). Primary cortical neurons were harvested from P0 Tg2576 pups. Each pup yielded 3 wells on a 12-well plate at a plating density of 0.8×10^5 cells per well. After genotyping, neurons from each transgenic pup (APPsw +/−) were treated with DMSO, LDN-0057228 (20 μM), or CNS-2 (5 μM) at DIV-14 for 24 hours. Data from two independent experiments were pooled, representing primary neurons from 4 transgenic pups. LDN-0057228 (20 μM) reduced Aβ40 by 65% (p<0.001) and CNS-2 (5 μM) reduced Aβ40 by 60% (p=0.001) (FIG. 17A).
# [2] = system: Aβ40 in Tg2576 primary cortical neurons; assay: Aβ40 ELISA in Tg2576 primary cortical neurons; format: cell-based, mouse; settings: 24 hours, normalized to total protein
# Protocol: as §1
# Culturing primary neurons from Tg2576 pups offers the advantage of equal APP expression, but suffers the drawback of lower yield since only half the pups contains the transgene. Furthermore, because neurons from each pup has to be plated separately, plating density and neuronal survivability may vary from mouse to mouse. Thus, total protein was used to normalize the data.
# CNS-2 and LDN-0057228 were evaluated in the Tg2576 pup system (FIG. 17). Primary cortical neurons were harvested from P0 Tg2576 pups. Each pup yielded 3 wells on a 12-well plate at a plating density of 0.8×10^5 cells per well. After genotyping, neurons from each transgenic pup (APPsw +/−) were treated with DMSO, LDN-0057228 (20 μM), or CNS-2 (5 μM) at DIV-14 for 24 hours. […]
# [3] = system: Aβ40 in Lenti-APPsw infected primary cortical neurons; assay: Aβ40 ELISA in Lenti-APPsw infected primary cortical neurons; format: cell-based, mouse; settings: 24 hours
# Protocol: FIG. 15A-D. LDN-0057228 reduces Aβ40 and sAPPβ in primary neurons. DIV-14 primary cortical neurons from wild-type mice were incubated for 24 hours with primary culture media containing lentivirus harboring APPsw. After infection, neurons were incubated for 48 hours with 1:1 fresh to conditioned media to allow for APP expression. Neurons were then treated with LDN-0057228 at 20 μM for 24 hours in triplicate. A) Media was collected for Aβ40 ELISA. Raw Aβ40 values were normalized to APP to control for variations in lentiviral infection efficiency. B) Cell lysates were probed with 6E10 antibody to visualize the transduced full-length APP. C) sAPPβ from neuron culture media was immunoprecipitated with sβsw antibody and probed with LN27. D) Quantification of sAPPβ, normalized to APP. Data in A) and […]) represent mean+s.d. of 3 wells. Bands from B) and C) were quantified using ImageJ software.
# FIG. 16A-B. CNS-2 and LDN-0057228 reduce Aβ40 in primary neurons. DIV-14 primary cortical neurons from wild-type mice were incubated for 24 hours with primary culture media containing lentivirus harboring APPsw. After infection, neurons were incubated for 48 hours with 1:1 fresh to conditioned media to allow for APP expression. Neurons were then treated for 24 hours with the indicated compound and concentration. A) Media was collected for Aβ40 ELISA. Raw Aβ40 values were normalized to APP to control for variations in lentiviral infection efficiency. B) Cell lysates were probed with 6E10 antibody to visualize the transduced full-length APP.
# Lenti-APPsw infected primary cortical neurons were selected for the initial round of physiological experiments due to the relatively large batches of wild-type primary cortical neurons that were routinely harvested in the lab, the ease of lentiviral packaging. Primary cortical neurons were harvested from wild-type P0 pups using established protocols.
# The Lenti-APPsw vector was co-transfected into HEK293 T cells with ViraPower packaging mix (Invitrogen) to generate the lentivirus. Lentiviral-mediated transduction of APPsw in primary neurons was performed by adding neuron primary culture media containing the lentiviral particles to wild-type DIV-14 primary neurons (FIG. 14). After 24 hours, neurons were incubated with media for 72 hours prior to collecting for Aβ40 measurement. Two batches of virus (LV-1 and LV-2) were tested, showing that there is batch-to-batch variation in the viral titer.
# Using this experimental paradigm, LDN-0057228 was tested at 20 μM concentration to confirm the sAPPβ- and Aβ-lowering activity of the compound (FIG. 15). The protocol was modified slightly to allow for 24-hour compound treatment. […]
# brain total Aβ40 = brain total Aβ40 in Tg2576 mice after intraperitoneal injection; format: in vivo; settings: 3 mg/kg intraperitoneal, 1 injection per day for 9 days, 12- to 13-month old Tg2576 mice; p value greater than 0.05
# Protocol: FIG. 18. CNS-2 reduces brain total Aβ40 in Tg2576 mice. CNS-2 was dissolved in 0.9% normal saline solution with 1.9% DMSO. 12 month old Tg2576 APPsw transgenic mice were treated with 3 mg/kg CNS-2 via intraperitoneal injection at an injection volume of 20 μl per gram. 8 mice per group were treated for 9 days, 1 injection per day. Mice were sacrificed on day 9, 5 hours after the final injection. One hemisphere from each mouse was homogenized, and the homogenate was processed for formic acid extraction of plaque Aβ. After formic acid extraction, total Aβ40 was measured via ELISA kit (BioSource) and normalized to total protein.
# A total of 16 mice were treated with either DMSO (n=8) or 3 mg/kg CNS-2 (n=8). The dosage was selected arbitrarily based on compound solubility in 0.9% normal saline. CNS-2 was dissolved in 0.9% normal saline solution with 1.9% final DMSO concentration. 12- to 13-month old Tg2576 mice were treated with DMSO or CNS-2 via intraperitoneal injection for 9 days (1 injection per day) at an injection volume of 20 μl per gram of weight. Mouse weight was monitored daily, and the total injection volume adjusted accordingly over the course of the 9-day treatment. […] Mice were sacrificed on day 9, 5 hours after the final injection. […] Total Aβ40 was determined by Aβ ELISA kit and normalized to total protein (FIG. 18).
structure (smiles),measurement,setting,value
Fc1ccc(C(OCCN2CCC[C@H]2CNCCc2ccccc2)c2ccc(F)cc2)cc1 [LDN-0057228],sAPPβ as visualized by IP-Western,[1],reduced sAPPβ
same,reduction in Aβ40,[2]; 20 μM,65%
same,reduction in Aβ40 levels,"[3]; 20 μM, normalized to APP",75%
O=C(CCc1ccccc1)NC[C@@H]1CCCN1CCOC(c1ccc(F)cc1)c1ccc(F)cc1 [CNS-2],sAPPβ as visualized by IP-Western,[1],reduced sAPPβ
same,reduction in Aβ40,[2]; 5 μM,60%
same,reduction in Aβ40,[3]; 5 μM,> 80%
same,reduction of brain total Aβ40,brain total Aβ40,30%
